From patent US20170312274A1, “METHOD FOR TREATING A BRAIN TUMOUR” (The Hospital for Sick Children, priority 2014, published 2017)

Tests used:
[1] = test system: GNS cells (GBM-derived neural stem cells); assay: Secondary screen / dose response curve, Alamar Blue cell viability, five days; format: cell-based, human; conditions: for IC50: six GNS and four NS lines, IC50 based on approximate observed value, read-out: potency (IC50), growth inhibition of GNS cells
Procedure: (§1) GNS and NS lines were grown as an adherent monolayer culture in serum free medium as described previously (Pollard et al. 2009. Cell stem cell 4, 568-580). Primary tumour cells were freshly dissociated from the patient sample in artificial cerebrospinal fluid followed by treatment with an enzyme cocktail at 37° C. (Singh et al. 2003. Cancer research 63, 5821-5828). BJ fibroblast, Daoy and C8-D1A and U-2 0S (ATCC) were maintained in DMEM with 10% FBS.
(§2) Cells were seeded in laminin-coated 384 well plates at a density of 2000 cells per well. Compounds were added at a concentration of approximately 5 μM and incubated with cells for five days at 37° C. Cell viability was assessed by measuring Alamar Blue incorporation according to the manufacturer's protocol (Invitrogen). Percent growth inhibition was calculated relative to the control DMSO wells.
(§3) The potency and selectivity of hits from the primary screen was tested in 8-point two-fold dilution series ranging from 50 μM-0.39 μM concentrations with more lines of GNS, NS and fibroblast. Experimental conditions were the same as in primary screen. IC50 was calculated based on an approximate observed value. Fold selectivity was calculated as IC50 of BJ/IC50 of any GNS cells with lowest IC50.

DRD4 receptor = molecular target: T1, DRD4 receptor (Homo sapiens, UniProt P21917); assay: cAMP assay (ELISA-based) in GNS (G362) cells; format: cell-based; conditions: pretreatment 30 μM for 15 minutes, then forskolin 30 μM
T1 construct: endogenous in cells; host or cells: GNS line G362 (patient-derived glioblastoma neural stem cells)
T1 sequence (P21917 1-419): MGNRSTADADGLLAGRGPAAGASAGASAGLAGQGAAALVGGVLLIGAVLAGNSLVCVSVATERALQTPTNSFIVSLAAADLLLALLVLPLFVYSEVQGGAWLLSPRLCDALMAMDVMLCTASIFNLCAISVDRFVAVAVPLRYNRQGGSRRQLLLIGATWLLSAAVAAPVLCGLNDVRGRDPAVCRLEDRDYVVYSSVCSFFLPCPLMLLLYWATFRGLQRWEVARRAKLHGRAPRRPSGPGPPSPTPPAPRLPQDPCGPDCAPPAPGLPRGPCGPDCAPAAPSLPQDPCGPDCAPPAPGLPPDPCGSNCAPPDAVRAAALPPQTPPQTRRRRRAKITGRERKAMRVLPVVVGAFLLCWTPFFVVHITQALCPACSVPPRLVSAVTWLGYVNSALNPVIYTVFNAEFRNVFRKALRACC
Procedure: cAMP levels were measured with an ELISA-based cAMP assay kit purchased from Cell Signaling (#4439). GNS (G362) cells were seeded overnight in a 96 well plate and treated with forskolin (30 μM) for 15 minutes, or pretreated with DRD4 agonist A412997 (30 μM) for 15 minutes followed by forskolin treatment. Cells were lysed and processed as per manufacturer's protocol.

[2] = test system: freshly isolated primary GBM patient tumour cells; assay: Primary in vitro limiting dilution assay (LDA), neurosphere formation; format: cell-based, human; conditions: L-741,742 10 μM, PNU 96415E 25 μM, 14 days, n=3 patient tumours
Procedure: (§4) Limiting dilution assay was performed as described previously (Tropepe et al., 1999. Developmental Biology 208, 166-188). Primary tumours were dissociated into single cell suspension and seeded into a 96-well plate with 10 point-2 fold serial dilution starting from 2000 cells to 4 cells/well, 6 wells for each dilution per plate. Each well was scored for neurosphere formation after 14 days of incubation. Percent of wells not containing spheres for each cell density was calculated and plotted against the cells per well, regression lines were plotted and x-intercept value at 0.37 was calculated at 95% confidence interval using Sigma Plot, which gives the number of cells required to form at least one neurosphere.

[3] = test system: GNS cells (G362) subcutaneous tumour; assay: Patient derived subcutaneous xenograft (G362); format: in vivo, mouse; conditions: 20 mg/kg i.p., five days on and two days off, vs vehicle
Procedure: (§5) All mouse procedures were approved by the Hospital for Sick Children's Animal Care Committee. To validate the in vivo effect of L-741,742 and PNU 96415E, 2×10^5 GNS cells in 200 μl of PBS and matrigel (1:1) were injected subcutaneously into flanks of non-obese diabetic/severe combined immunodeficient (NOD/SCID) female mice. 8 mice (2 tumours per mouse except for one mouse in control group that has one tumour) were maintained for each group; control (15 tumours), L-741,742 (16 tumours) and PNU 96415E (16 tumours). L-741,742 and PNU 96415E were dissolved in 40% 2 hydroxy β-cyclodextrin (Sigma). Mice were treated three days after tumour implantation. Both L-741,742 and PNU 96415E were injected (20 mg/kg) i.p for 5 days on two days off until the end point. Control group was injected with 40% 2 hydroxy β-cyclodextrin. Tumour growth was monitored with microcalipers until tumour volume reached 17 mm in any one tumour from any group and all mice were sacrificed at the same end point. Dissected tumour volume was measured and mass was determined by weighing.

[4] = test system: colony forming cells of in vivo treated tumours; assay: In vitro LDA of in vivo treated xenograft tumours; parameters: species or system mouse; conditions: tumours treated in vivo 20 mg/kg i.p.; vehicle treated tumours 1 in every 11 cells
Procedure: as §5, with “Both L-741,742 and PNU 96415E were injected (20 mg/kg) i.p for 5 days on two days off until the end point. Control group was injected with 40% 2 hydroxy β-cyclodextrin.” left out
as §4, with “Primary tumours were dissociated into single cell suspension and seeded into a 96-well plate with 10 point-2 fold serial dilution starting from 2000 cells to 4 cells/well, 6 wells for each dilution per plate.” left out

[5] = test system: GNS cells (G411 and G362); assay: Autophagy markers (LC3B, p62) by western blot and immunofluorescence; format: cell-based, human; conditions: for levels of LC3B-II: L-741,742 10 μM, PNU 96415E 25 μM, G411 and G362; for LC3-II levels in the presence of chloroquine compared to control: chloroquine 30 μM, 48 h, G411; for autophagy substrate p62: treated GNS cells (G411)
Procedure: Western blots were performed using the following antibodies; anti-DRD4 antibody at 1:750 (Millipore# MABN125), anti-activated MAPK at 1:2500 (Promega#V803A), anti-ERK1/2 at 1:2000 (Promega#V114A), anti-βactin at 1:10,000 (Sigma), anti-LC3B at 1:1000 (Cell Signaling #3868), anti-p62 at 1:1000 (BD Bioscience), anti-LAMP1 at 1:2000 (Developmental Studies Hybridoma Bank), anti-mono and polyubiquitinylated protein conjugates (FK2) at 1:1000 (Enzo Life Sciences).

G411 and G362 cells = assay: Cell cycle analysis by flow cytometry of DNA content; format: cell-based, human; conditions: L-741,742 10 μM, PNU 96415E 25 μM, time dependent
GNS cells = assay: Caspase 3/7 activity and cleaved PARP in treated GNS cells; format: cell-based, human
[6] = test system: ERK1/2 phosphorylation in GNS (G362) cells; assay: Phospho-kinase antibody array; format: cell-based, human; conditions: L-741,742 10 μM, PNU 25 μM, 24 h
Procedure: A human phospho-kinase antibody array was purchased from R&D systems (Cat# ARY003). This array contains capture antibodies for 43 kinases in duplicate on nitrocellulose membrane. GNS (G362) and NS (hf5205) lines were treated with L-741,742 (10 μM) and PNU 96415E (25 μM) along with a DMSO control for 24 h, and cells were then processed according to the manufacturer's protocol. Signal intensity was quantified using ImageJ.

G362 cells = assay: Combination/synergy screen with temozolomide, alamar blue; format: cell-based, human; conditions: five days, COMPUSYN, CI <1 indicates synergism
Procedure: (§6) 2000 GNS cells (G362 and G481) were seeded in a 96 well plate and treated with a combination of 6-point 2-fold dose series of either L-741,742 (6.25 μM-0.39 μM) or PNU 96415E (25 μM-1.56 μM) with 10-point 2-fold dose series of temozolomide (100 μM-0.39 μM) in 60 point combination doses. The cells were incubated with a combination of the two drugs for five days and then checked for cell viability using the alamar blue assay. Combination index (CI) plot and CI value was calculated for 5 point dose series in each combination using the programme COMPUSYN. Data points taken for COMPUSYN analysis are temozolomide (100, 50, 25, 12.5 and 6.25 μM) in combination with either L-741,742 (6.25, 3.12, 1.56, 0.78 and 0.39 μM) or PNU 96415E (25, 12.5, 6.25, 3.12 and 1.56 μM).

G481 cells = assay: as above; format: cell-based, human; conditions: five days, COMPUSYN, CI <1 indicates synergism
Procedure: as §6

[7] = test system: non-NS control cells (BJ fibroblast, Daoy, U-2 0S, C8-D1A); assay: Dose response cell viability in non-NS control cell lines; format: cell-based; conditions: highest concentration tested 50 μM
Procedure: as §1, §2, §3

[8] = dose response series 0.39-50 μM

Br.Br.CN(CCc1ccc(Cl)c(Cl)c1)[C@@H]1CCCC[C@@H]1N1CCCC1 (racemic) [cis-(±)-N-Methyl-N-[2-(3,4-dichlorophenyl)ethyl]-2-(1-pyrrolidinyl)cyclohexamine 2HBr]
Fold selectivity towards GNS and NS cells compared to fibroblasts (IC50 of BJ/IC50 of any of the NS or GNS lines that showed the lowest IC50) ([1]; dose response series 0.39-50 μM, five days): 8 fold

Cc1cccc(NC(=O)CN2CCC(c3ccccn3)CC2)c1 [A412997]
block of forskolin-induced cAMP response (DRD4 receptor): 38%

Cc1c(C2CCN(CCc3ccccc3)CC2)noc1-c1ccc(Cl)cc1 [L-741,742]
selectivity against GNS cells compared to NS cells [1, 8]: 8 fold | IC50 [1]: 1.5 to 6.2 µM | reduction in frequency of colony forming cells in comparison to the control [2]: 40-83 fold | average tumour weight at the end point reduced by [3]: 40.9% | colony forming cell frequency, 1 in every x cells [4]: 76 cells | levels of LC3B-II [5]: increase | LC3-II levels in the presence of chloroquine compared to control [5]: did not increase | autophagy substrate p62 [5]: accumulated | effect on the cell cycle (G411 and G362 cells): G0/G1 arrest | caspase 3/7 activity or cleaved PARP (GNS cells): no increase | reduction of ERK1/2 phosphorylation compared to the untreated control [6]: 40% | lowest combination index (CI) value in combination with TMZ (G362 cells): 0.29 | lowest combination index (CI) value in combination with TMZ (G481 cells): 0.28

Clc1ccc(N2CCN(Cc3c[nH]c4ncccc34)CC2)cc1 [L-745,870]
IC50 [1]: 3.1 to 6.2 µM

Cl.Cl.Fc1ccc(N2CCN(CCC3OCCc4ccccc43)CC2)cc1 (centres unmarked) [PNU 96415E]
selectivity against GNS cells compared to NS cells [1, 8]: 8 fold | IC50 [1]: 6.25 µM | sensitivity of non-NS control cells [7]: not sensitive even at the highest concentration tested | reduction in frequency of colony forming cells in comparison to the control [2]: 19-29 fold | average tumour weight at the end point reduced by [3]: 44.3% | colony forming cell frequency, 1 in every x cells [4]: 43 cells | levels of LC3B-II [5]: increase | LC3-II levels in the presence of chloroquine compared to control [5]: did not increase | autophagy substrate p62 [5]: accumulated | effect on the cell cycle (G411 and G362 cells): G0/G1 arrest | caspase 3/7 activity or cleaved PARP (GNS cells): no increase | reduction of ERK1/2 phosphorylation compared to the untreated control [6]: 40% | lowest combination index (CI) value in combination with TMZ (G362 cells): 0.56 | lowest combination index (CI) value in combination with TMZ (G481 cells): 0.32

Ifenprodil tartrate
selectivity against GNS cells compared to NS cells [1, 8]: 8 fold

PD168568
IC50 [1]: 25 to 50 µM
